The test system of assay [1] is mutant (mut) 5′UTR of KDM5C mRNA (RNA, mRNA element) UGGCGUGGGCUGCGGUACGACGGCCACACGCC
Nature of the assay: microscale thermophoresis (Monolith NT.115). The following applies: DEPC water; RNA stock 40 nM; 1 mM putrescine stock (highest), 16-step 1:2 dilution. For orientation: MST reads how a fluorescent partner responds to local heating, with and without ligand.

In assay [2] the test system is wild-type (WT) 5′UTR of KDM5C mRNA (RNA, mRNA element) UGGCGAAGGCUGCGGUACGACGGCCACACGCC
The assay can be described thus: microscale thermophoresis (Monolith NT.115). The conditions noted are these: DEPC water; RNA stock 40 nM; 1 mM putrescine stock, 16-step 1:2 dilution; 4PL sigmoidal fit.

As a reminder, the Kd is the equilibrium constant for the complex coming apart. A low value points to higher affinity.

As for `NCCCCN`, the binding entry in assay [1] was “no”. In assay [2], this molecule gave a Kd of 52.3 µM.

These data come from article PMC12408367 (2025).
